Earlier results as cited in patent US20090192128A1 (priority 2005, published 2009).
Counter-ions that a name gives are not always drawn.

Row | Compound | solubility in organic solvents (organic solvents such as ethanol, ether and chloroform) | solubility in water | solubility in alcohol (alcohol) | solubility in ether (ether)
1 | O=[N+]([O-])O[C@H]1CO[C@H]2[C@@H]1OC[C@H]2O[N+](=O)[O-] [Diluted isosorbide dinitrate, 1,4,3,6-dianhydro-D-glucitol-2,5-dinitrate] | freely soluble | sparingly soluble | – | –
2 | NNc1nncc2ccccc12 [Hydralazine hydrochloride, hydralazine hydrochloride] | – | soluble | slightly soluble | very slightly soluble
